Values joined by “and” are separate entries in the source; they are usually repeats but may differ in a detail not shown here. Equal values may be shown once. Active and inactive are the calls of the source.
Legend:
[1] = inhibition of Env-driven cell fusion – HIV entry, plate reader, dry powder, dose response (AID 687023); format: functional, cell-based
[2] = viability loss in CEM21 cells – cell-based, plate reader, dry powder, cytotoxicity control, dose response (AID 687026); format: functional
[3] = biological target: Delta-type opioid receptor (Homo sapiens, UniProt P41143); assay: Late-stage results from the probe development effort to identify antagonists of OPRK1: fluorescence-based cell-based dose response OPRD1 counterscreen.; format: functional
Mu-type opioid receptor = Mu-type opioid receptor (Homo sapiens, UniProt P35372); assay: Late-stage results from the probe development effort to identify antagonists of OPRK1: luminescence-based cell-based dose response OPRM1 counterscreen.; format: functional
[4] = ATP-based viability loss in HepG2 cells – cell-based, CellTiter-Glo luminescence, dry powder, set 3, cytotoxicity control, dose response (AID 720594); format: functional
[5] = ATP-based viability loss in HeLa cells – cell-based, CellTiter-Glo luminescence, dry powder, set 2, cytotoxicity control, dose response (AID 720593); format: functional
[6] = potency of ADAM10 substrate cleavage blockers – biochemical, QFRET, dose response (AID 743254);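 also: ADAM10 enzyme with the DM2 quenched FRET peptide as substrate; EDANS fluorescence gain as the protease cuts the substrate; inhibitor potency against ADAM10 proteolytic activity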
[7] = biological target: 1-phosphatidylinositol 4,5-bisphosphate phosphodiesterase gamma-1 (Homo sapiens, UniProt P19174); assay: Counterscreen for inhibitors of phospholipase C isozymes (PLC-B3): Fluorescence-based biochemical high throughput dose response assay to identify inhibitors of phospholipase C isozymes (PLC-gamma1).
[8] = biological target: 1-phosphatidylinositol 4,5-bisphosphate phosphodiesterase beta-3 (Homo sapiens, UniProt Q01970); assay: Fluorescence-based biochemical high throughput dose response assay to identify inhibitors of phospholipase C isozymes (PLC-B3).
[9] = biological target: Disintegrin and metalloproteinase domain-containing protein 17 (Homo sapiens, UniProt P78536); assay: inhibition of ADAM17 substrate cleavage – biochemical, quenched FRET substrate, counter-screen for ADAM10 exosite inhibitor project, dose response (AID 743253)
[10] = luciferase reporter signal suppression in cells – H4 neuroglioma cells, luminescence, dose response (AID 1990); format: functional, cell-based
[11] = Luminescence Cell-Based Dose Response HTS to Identify Inhibitors of 5'UTR Stem-Loop Driven Prion Protein mRNA Translation in H4 Neuroglioblastoma Cells. [Related pubchem assays: 1827 (Project Summary), 1813 (Primary HTS)]; format: functional
[12] = alpha-synuclein stem-loop luciferase translation blockers – H4 neuroglioma cells, luminescence, confirmation (AID 1988); format: functional, cell-based
[13] = viability of PTEN-deleted HCT116 cells – cell-based, HCT116 PTEN knockout, dose response (AID 1047); format: functional;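 also: HCT116 colon tumor cells with PTEN knocked out; cells exposed to compound for 60 hours before readout; potency for loss of cell viability measured by luminescence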
[14] = viability of HCT116 lacking mutant beta-catenin – cell-based, human colon tumor, dose response (AID 1045); format: functional;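 also: HCT116 colon tumor cells with beta catenin knocked out; cells exposed to compound for 60 hours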
[15] = HEK-293T viability loss after treatment – luminescence, T-cell screen hits, cytotoxicity control for TCR NF-kB inhibitor project, dose response (AID 489026); format: functional, cell-based;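 also: cells exposed to compound about 14 hours before the viability readout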
[16] = biological target: Lysine-specific demethylase 4C (Homo sapiens, UniProt Q9H3R0); assay: inhibition of JMJD2C H3K9me3 demethylation – biochemical, DELFIA europium, cherry-picked samples, dose response (AID 488835); format: functional
[17] = biological target: T1, Microphthalmia-associated transcription factor (Homo sapiens, UniProt O75030); assay: reducers of TRPM1 reporter luminescence, concentration series – cell-based, SK-MEL-5, cherry-picked, set 3, MITF inhibitor project, dose response (AID 493073); format: functional;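 also: SK-MEL-5 melanoma cells with luciferase driven by the MITF target TRPM1 promoter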
T1 sequence (O75030 whole entry): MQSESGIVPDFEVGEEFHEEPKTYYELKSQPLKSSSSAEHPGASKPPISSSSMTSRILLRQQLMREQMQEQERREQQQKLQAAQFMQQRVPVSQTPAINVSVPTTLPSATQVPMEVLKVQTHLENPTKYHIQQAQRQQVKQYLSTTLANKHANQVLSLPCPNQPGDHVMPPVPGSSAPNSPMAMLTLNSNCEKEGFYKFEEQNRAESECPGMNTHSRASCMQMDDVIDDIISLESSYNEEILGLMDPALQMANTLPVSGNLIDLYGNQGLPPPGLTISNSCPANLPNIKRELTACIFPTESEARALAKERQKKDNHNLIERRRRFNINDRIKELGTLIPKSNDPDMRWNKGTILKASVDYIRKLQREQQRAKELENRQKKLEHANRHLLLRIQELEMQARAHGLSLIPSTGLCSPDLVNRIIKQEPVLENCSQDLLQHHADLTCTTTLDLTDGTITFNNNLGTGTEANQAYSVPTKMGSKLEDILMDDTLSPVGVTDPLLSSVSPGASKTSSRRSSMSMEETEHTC

[18] = biological target: T2, Replicative DNA helicase DnaB (Mycobacterium tuberculosis, UniProt P9WMR3); assay: DnaB intein splicing inhibitors, dose response, biochemical, cell-free fluorescence (AID 449749); format: functional
T2 sequence (P9WMR3 whole entry): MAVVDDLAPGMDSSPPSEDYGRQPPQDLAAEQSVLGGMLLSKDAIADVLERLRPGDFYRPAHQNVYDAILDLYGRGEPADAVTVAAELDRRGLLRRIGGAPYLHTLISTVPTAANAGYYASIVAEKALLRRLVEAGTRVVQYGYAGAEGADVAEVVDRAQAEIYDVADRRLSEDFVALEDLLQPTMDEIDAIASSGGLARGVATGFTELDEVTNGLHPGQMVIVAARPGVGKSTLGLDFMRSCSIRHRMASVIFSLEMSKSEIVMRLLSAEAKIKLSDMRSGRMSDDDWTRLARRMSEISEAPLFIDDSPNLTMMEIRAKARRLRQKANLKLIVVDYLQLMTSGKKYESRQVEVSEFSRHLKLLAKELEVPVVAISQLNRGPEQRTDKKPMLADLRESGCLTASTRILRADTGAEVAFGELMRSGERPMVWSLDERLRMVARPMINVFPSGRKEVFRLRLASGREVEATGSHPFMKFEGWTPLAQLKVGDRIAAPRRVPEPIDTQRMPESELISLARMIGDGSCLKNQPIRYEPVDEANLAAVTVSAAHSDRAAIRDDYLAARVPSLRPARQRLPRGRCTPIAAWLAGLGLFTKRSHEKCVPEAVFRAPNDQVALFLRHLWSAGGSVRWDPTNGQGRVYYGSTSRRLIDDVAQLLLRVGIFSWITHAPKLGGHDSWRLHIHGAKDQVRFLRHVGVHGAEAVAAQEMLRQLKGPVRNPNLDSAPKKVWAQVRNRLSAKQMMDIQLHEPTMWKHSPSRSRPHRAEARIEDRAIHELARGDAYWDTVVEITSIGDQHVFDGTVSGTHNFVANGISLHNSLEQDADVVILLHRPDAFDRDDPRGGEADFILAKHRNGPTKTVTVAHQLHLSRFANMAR

Protein RecA = biological target: T3, Protein RecA (Mycobacterium tuberculosis, UniProt P9WHJ3); assay: Fluorescence Cell-Free Homogeneous Dose Retest to Identify Inhibitors of RecA-Intein Splicing Activity. [Related pubchem assays (depositor defined):AID2097, AID2223, AID489010, AID492950]; format: functional
T3 sequence (P9WHJ3 whole entry): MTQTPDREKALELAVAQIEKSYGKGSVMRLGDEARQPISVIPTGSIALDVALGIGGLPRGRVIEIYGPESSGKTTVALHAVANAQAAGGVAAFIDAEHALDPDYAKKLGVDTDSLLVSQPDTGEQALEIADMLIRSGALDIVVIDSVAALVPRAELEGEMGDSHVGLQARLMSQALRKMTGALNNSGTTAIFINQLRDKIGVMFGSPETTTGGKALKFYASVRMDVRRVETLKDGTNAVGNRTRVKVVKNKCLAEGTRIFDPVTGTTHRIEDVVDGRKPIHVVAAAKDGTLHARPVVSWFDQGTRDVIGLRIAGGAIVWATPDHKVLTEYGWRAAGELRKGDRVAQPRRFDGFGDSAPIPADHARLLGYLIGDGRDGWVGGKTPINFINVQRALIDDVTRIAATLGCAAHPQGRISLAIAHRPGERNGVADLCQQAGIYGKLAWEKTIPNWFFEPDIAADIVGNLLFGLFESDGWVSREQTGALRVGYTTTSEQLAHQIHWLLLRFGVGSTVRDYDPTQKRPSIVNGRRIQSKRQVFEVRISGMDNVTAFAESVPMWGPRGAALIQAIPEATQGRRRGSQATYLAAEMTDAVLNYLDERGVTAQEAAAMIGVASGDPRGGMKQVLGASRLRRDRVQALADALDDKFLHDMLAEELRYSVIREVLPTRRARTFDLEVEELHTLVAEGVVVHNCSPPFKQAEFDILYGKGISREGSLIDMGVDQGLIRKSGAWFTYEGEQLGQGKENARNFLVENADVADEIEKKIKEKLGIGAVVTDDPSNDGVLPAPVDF

INS1 = assay: INS-1E survival protection against cytokine death – cell-based, luminescence, retest, dose response (AID 449756); format: functional; conditions: Rattus norvegicus;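 also: cell death triggered by IL-1 beta plus TNF-alpha plus IFN-gamma mixture; protective hits raise ATP signal compared with cytokine alone wells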
[19] = cytotoxicity in MITF-independent A375 cells – cell-based, CellTiter-Glo luminescence, dry powder, set 4, counter-screen for MITF inhibitor project, dose response (AID 624364); format: functional; conditions: A-375;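 also: A375 melanoma cells are MITF independent so this is a counter screen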
[20] = viability loss in MITF-independent A375 cells – cell-based, CellTiter-Glo luminescence, dry powder, set 2, counter-screen for MITF inhibitor project, dose response (AID 624489); format: functional; conditions: A-375;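 also: actives are compounds lowering A375 viability meaning general cytotoxicity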

Disintegrin and metalloproteinase domain-containing protein 17, sequence (P78536 whole entry, the tested form may be a part): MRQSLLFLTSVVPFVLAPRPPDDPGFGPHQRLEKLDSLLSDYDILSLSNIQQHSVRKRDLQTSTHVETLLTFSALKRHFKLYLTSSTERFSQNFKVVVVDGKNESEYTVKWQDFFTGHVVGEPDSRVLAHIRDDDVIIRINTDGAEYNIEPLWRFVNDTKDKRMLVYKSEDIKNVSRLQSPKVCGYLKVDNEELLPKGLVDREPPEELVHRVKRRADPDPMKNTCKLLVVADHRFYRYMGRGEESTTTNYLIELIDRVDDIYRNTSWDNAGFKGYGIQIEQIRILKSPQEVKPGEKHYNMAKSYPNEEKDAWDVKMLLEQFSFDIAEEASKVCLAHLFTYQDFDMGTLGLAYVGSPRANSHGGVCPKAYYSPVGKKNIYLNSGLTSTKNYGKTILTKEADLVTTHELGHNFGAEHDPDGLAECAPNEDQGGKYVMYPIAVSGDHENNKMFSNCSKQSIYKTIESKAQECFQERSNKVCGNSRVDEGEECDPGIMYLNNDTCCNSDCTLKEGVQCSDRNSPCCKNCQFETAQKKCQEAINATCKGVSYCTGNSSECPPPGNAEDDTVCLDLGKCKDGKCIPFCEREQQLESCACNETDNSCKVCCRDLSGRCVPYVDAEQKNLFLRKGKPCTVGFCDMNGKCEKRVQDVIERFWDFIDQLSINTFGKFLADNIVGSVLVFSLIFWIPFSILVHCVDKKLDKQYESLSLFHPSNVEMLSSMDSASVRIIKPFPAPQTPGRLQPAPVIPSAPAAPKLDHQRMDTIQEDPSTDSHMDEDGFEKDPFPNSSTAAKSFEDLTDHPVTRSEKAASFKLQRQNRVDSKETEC
1-phosphatidylinositol 4,5-bisphosphate phosphodiesterase gamma-1, sequence (P19174 whole entry): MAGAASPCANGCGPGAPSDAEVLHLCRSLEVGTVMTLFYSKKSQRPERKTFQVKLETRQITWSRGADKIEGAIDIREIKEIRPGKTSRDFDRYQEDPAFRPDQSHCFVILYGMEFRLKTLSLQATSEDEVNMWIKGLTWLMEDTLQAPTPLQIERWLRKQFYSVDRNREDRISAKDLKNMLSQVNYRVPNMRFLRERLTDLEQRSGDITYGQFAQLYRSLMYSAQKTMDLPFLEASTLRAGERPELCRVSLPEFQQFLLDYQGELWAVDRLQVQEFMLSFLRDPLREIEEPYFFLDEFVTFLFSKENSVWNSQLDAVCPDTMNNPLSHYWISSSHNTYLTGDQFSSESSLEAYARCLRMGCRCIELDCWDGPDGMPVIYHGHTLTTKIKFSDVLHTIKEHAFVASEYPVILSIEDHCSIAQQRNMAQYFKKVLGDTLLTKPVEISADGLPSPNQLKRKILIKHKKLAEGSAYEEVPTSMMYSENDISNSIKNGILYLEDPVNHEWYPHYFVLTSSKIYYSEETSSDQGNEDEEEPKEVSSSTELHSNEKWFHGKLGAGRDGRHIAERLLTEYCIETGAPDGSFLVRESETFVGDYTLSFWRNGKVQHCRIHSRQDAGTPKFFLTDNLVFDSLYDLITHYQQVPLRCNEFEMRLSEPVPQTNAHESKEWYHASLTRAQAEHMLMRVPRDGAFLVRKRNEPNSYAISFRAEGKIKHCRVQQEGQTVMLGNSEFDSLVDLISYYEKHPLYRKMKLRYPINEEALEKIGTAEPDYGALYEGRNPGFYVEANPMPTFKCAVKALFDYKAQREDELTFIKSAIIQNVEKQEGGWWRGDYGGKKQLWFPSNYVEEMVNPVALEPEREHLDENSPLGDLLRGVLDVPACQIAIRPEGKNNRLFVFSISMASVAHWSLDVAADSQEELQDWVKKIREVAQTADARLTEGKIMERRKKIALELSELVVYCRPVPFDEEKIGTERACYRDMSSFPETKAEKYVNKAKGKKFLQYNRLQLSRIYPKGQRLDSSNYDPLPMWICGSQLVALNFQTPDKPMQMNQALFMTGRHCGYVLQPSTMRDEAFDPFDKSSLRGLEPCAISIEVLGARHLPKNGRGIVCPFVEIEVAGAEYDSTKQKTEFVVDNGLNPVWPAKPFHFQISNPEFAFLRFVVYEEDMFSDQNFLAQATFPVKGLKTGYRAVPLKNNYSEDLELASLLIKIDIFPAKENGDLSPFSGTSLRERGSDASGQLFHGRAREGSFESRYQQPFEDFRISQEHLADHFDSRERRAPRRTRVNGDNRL
Delta-type opioid receptor, sequence (P41143 whole entry): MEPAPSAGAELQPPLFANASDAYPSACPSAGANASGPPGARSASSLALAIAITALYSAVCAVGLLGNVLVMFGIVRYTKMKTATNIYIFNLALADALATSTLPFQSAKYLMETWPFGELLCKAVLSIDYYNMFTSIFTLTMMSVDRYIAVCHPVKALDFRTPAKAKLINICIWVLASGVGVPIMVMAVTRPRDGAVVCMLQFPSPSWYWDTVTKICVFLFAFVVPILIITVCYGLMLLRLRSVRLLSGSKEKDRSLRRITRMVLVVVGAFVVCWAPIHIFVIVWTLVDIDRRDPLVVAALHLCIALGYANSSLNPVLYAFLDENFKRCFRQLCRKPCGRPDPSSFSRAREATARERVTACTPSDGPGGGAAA
1-phosphatidylinositol 4,5-bisphosphate phosphodiesterase beta-3, sequence (Q01970 whole entry, the tested form may be a part): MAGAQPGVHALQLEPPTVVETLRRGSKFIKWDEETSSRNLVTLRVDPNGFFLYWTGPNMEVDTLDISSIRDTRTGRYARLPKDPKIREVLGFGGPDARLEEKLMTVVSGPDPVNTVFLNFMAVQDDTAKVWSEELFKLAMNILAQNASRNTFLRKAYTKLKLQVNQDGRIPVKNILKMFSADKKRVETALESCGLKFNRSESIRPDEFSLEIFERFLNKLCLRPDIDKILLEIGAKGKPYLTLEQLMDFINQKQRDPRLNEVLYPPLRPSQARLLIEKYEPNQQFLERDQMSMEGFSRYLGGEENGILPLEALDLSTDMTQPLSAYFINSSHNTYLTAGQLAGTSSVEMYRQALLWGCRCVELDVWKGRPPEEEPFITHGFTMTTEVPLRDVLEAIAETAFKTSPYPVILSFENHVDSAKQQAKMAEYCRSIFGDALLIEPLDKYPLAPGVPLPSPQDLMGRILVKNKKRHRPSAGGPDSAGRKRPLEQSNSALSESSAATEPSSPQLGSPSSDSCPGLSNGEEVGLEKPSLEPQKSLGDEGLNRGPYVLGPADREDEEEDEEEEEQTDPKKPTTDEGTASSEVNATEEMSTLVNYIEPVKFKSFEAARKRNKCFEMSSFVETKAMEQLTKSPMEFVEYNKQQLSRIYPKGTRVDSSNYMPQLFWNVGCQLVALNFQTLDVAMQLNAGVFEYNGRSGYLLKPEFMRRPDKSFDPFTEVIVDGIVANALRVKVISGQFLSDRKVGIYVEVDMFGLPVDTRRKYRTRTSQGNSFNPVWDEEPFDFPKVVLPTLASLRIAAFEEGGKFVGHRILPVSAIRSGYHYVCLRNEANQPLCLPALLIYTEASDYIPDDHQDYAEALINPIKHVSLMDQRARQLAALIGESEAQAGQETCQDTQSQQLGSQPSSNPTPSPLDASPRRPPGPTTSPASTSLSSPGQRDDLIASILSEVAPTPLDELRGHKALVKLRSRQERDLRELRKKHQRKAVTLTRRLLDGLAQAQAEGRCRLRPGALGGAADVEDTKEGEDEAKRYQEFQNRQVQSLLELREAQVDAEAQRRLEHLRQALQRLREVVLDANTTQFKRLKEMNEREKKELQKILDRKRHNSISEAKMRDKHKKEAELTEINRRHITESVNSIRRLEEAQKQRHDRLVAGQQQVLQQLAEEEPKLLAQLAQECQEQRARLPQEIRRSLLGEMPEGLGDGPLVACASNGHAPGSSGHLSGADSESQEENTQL
Lysine-specific demethylase 4C, sequence (Q9H3R0 whole entry): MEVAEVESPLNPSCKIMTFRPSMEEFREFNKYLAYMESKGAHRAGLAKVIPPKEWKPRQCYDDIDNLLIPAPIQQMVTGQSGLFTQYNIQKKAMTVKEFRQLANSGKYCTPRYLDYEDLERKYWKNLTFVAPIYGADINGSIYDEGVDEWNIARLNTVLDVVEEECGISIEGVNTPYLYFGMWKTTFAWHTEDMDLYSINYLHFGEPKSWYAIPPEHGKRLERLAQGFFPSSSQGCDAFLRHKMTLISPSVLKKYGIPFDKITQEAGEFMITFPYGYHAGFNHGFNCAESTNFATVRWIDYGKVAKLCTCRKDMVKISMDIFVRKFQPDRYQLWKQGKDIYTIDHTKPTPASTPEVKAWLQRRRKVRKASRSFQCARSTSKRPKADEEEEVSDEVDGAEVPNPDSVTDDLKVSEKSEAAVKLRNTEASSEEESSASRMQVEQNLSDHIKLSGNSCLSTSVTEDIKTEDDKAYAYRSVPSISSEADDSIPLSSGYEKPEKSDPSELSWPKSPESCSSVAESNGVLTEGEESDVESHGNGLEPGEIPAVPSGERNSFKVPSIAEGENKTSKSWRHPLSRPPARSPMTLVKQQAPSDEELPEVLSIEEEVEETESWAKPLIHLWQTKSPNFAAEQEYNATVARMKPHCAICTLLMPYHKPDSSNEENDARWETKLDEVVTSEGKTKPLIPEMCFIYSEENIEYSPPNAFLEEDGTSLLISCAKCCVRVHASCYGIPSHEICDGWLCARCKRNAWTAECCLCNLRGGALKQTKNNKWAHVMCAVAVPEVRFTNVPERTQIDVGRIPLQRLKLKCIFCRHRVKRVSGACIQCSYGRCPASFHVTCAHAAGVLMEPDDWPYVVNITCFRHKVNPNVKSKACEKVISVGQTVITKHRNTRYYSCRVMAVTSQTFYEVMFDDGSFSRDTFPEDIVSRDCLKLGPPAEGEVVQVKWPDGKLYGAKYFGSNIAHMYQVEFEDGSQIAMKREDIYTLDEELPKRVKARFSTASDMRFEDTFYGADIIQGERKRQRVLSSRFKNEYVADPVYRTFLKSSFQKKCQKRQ

O=S(=O)(NCc1ccncc1)c1ccc2c(c1)OCCO2
active: AC50 [1] 125 nM and 167 nM
inactive: AC50 [2] > 70 µM

COC(=O)c1cc(I)cnc1N1CCC(NC2CCCCC2)CC1
active: IC50 [3] 2.5 µM | IC50 (Mu-type opioid receptor) 0.479 µM

COc1ccc(-c2nnc(NC(=O)c3ccc(S(=O)(=O)N4CCC(C)CC4)cc3)o2)cc1
inactive: AC50 [4] > 52 µM | AC50 [5] > 52 µM

CN1C(=O)c2cc(NC(=O)Nc3ccccc3F)ccc2OC[C@H]2O[C@@H](CC(=O)NCc3ccc(-c4ccccc4)cc3)CC[C@@H]21
inactive: IC50 [6] > 69.5 µM | IC50 [7] > 122 µM | IC50 [8] > 122 µM | IC50 [9] > 69.5 µM

CC(=O)N(C)C1=C(N2CCOCC2)C(=O)c2ccccc2C1=O
active: EC50 [10] 10.8 µM | EC50 [11] 11.7 µM | EC50 [12] 7.74 µM | EC50 [13] 1.91 µM | EC50 [14] 1.81 µM | IC50 [15] 4.03 µM | AC50 [16] 31.2 µM | AC50 [17] 3.5 µM | AC50 [18] 51.3 µM | EC50 (Protein RecA) 38.4 µM | AC50 (INS1) 1.67 µM | AC50 [19] 32.1 µM | AC50 [20] 13.9 µM
